Experimental data reported in PubChem BioAssay AID1963875 (Molecular Pharmacology Branch, DTP, NCI, 2024).

Tested on: KRAS-mutant PDC complex spheroid viability
Assay: Anticancer human tumor 186277-243-T-J2-PDC patient-derived colon adenocarcinoma cell line growth inhibition [KRAS2]
Conditions: for IC50: curve of first compound; for viability, T/C: stronger effect = lower value
How it was run: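 Combination screen of spheroid viability in tumor-cell co-cultures with endothelial (HUVEC) and mesenchymal stem cell stroma. Each agent was tested in half-log dilutions, topping at clinical Cmax or at 10 microM without a known Cmax.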

[1] = second compound 0.1 µM, first compound 0.01 µM
[2] = second compound 0.1 µM, first compound 0.0316 µM
[3] = second compound 0.1 µM, first compound 0.1 µM
[4] = second compound 0.316 µM, first compound 0.01 µM
[5] = second compound 0.316 µM, first compound 0.0316 µM
[6] = second compound 0.316 µM, first compound 0.1 µM
[7] = second compound 1 µM, first compound 0.01 µM
[8] = second compound 1 µM, first compound 0.0316 µM
[9] = second compound 1 µM, first compound 0.1 µM
[10] = second compound 3.16 µM, first compound 0.01 µM
[11] = second compound 3.16 µM, first compound 0.0316 µM
[12] = second compound 3.16 µM, first compound 0.1 µM
[13] = second compound 10 µM, first compound 0.01 µM
[14] = second compound 10 µM, first compound 0.0316 µM
[15] = second compound 10 µM, first compound 0.1 µM
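Throughout, for viability, T/C: viability read after seven days of compound exposure; 100% = DMSO vehicle-treated spheroids so lower means less viable.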

| Structure (SMILES) | IC50 (second compound 0.1 µM) | IC50 (second compound 0.316 µM) | IC50 (second compound 1 µM) | IC50 (second compound 3.16 µM) | IC50 (second compound 10 µM) | viability, T/C [1] | viability, T/C [2] | viability, T/C [3] | viability, T/C [4] | viability, T/C [5] | viability, T/C [6] | viability, T/C [7] | viability, T/C [8] | viability, T/C [9] | viability, T/C [10] | viability, T/C [11] | viability, T/C [12] | viability, T/C [13] | viability, T/C [14] | viability, T/C [15] | further results |
| --- | --- | --- | --- | --- | --- | --- | --- | --- | --- | --- | --- | --- | --- | --- | --- | --- | --- | --- | --- | --- | --- |
| CC(=O)OC12COC1CC(O)C1(C)C(=O)C(O)C3=C(C)C(OC(=O)C(O)C(NC(=O)OC(C)(C)C)c4ccccc4)CC(O)(C(OC(=O)c4ccccc4)C21)C3(C)C (stereo not given) + CC1OCC2(CCN(c3cnc(Sc4ccnc(N)c4Cl)c(N)n3)CC2)C1N | < 10 nM | < 10 nM | < 10 nM | < 10 nM | < 10 nM | 4.2% | 2.69% | 2.31% | 2.83% | 3.64% | 1.94% | 4.63% | 3.42% | 3.58% | 2.53% | 1.65% | 2.04% | 1.96% | 1.99% | 1.61% | viability, T/C (second compound 0.1 µM, first compound 0.316 µM): 2.12%; viability, T/C (second compound 0.1 µM, first compound 1 µM): 2.12%; viability, T/C (second compound 0.1 µM, first compound 3.16 µM): 2.53%; viability, T/C (second compound 0.316 µM, first compound 0.316 µM): 1.7%; viability, T/C (second compound 0.316 µM, first compound 1 µM): 1.93%; viability, T/C (second compound 0.316 µM, first compound 3.16 µM): 2.14%; viability, T/C (second compound 1 µM, first compound 0.316 µM): 2.84%; viability, T/C (second compound 1 µM, first compound 1 µM): 3.01%; viability, T/C (second compound 1 µM, first compound 3.16 µM): 3.67%; viability, T/C (second compound 3.16 µM, first compound 0.316 µM): 1.63%; viability, T/C (second compound 3.16 µM, first compound 1 µM): 1.81%; viability, T/C (second compound 3.16 µM, first compound 3.16 µM): 2.09%; viability, T/C (second compound 10 µM, first compound 0.316 µM): 1.82%; viability, T/C (second compound 10 µM, first compound 1 µM): 1.73%; viability, T/C (second compound 10 µM, first compound 3.16 µM): 1.74% |
| CN(C)C/C=C/C(=O)Nc1cc2c(Nc3ccc(F)c(Cl)c3)ncnc2cc1O[C@H]1CCOC1 + CC1OCC2(CCN(c3cnc(Sc4ccnc(N)c4Cl)c(N)n3)CC2)C1N | > 100 nM | > 100 nM | > 100 nM | 28.9 nM | 27.8 nM | 126% | 100% | 108% | 104% | 84.5% | 81.4% | 99.8% | 99.8% | 99.5% | 62.6% | 49.4% | 34.6% | 103% | 44.6% | 38.4% | viability, T/C (second compound 0.1 µM, first compound 0.000316 µM): 92.7%; viability, T/C (second compound 0.1 µM, first compound 0.001 µM): 104%; viability, T/C (second compound 0.1 µM, first compound 0.00316 µM): 104%; viability, T/C (second compound 0.316 µM, first compound 0.000316 µM): 103%; viability, T/C (second compound 0.316 µM, first compound 0.001 µM): 101%; viability, T/C (second compound 0.316 µM, first compound 0.00316 µM): 112%; viability, T/C (second compound 1 µM, first compound 0.000316 µM): 92.5%; viability, T/C (second compound 1 µM, first compound 0.001 µM): 90.5%; viability, T/C (second compound 1 µM, first compound 0.00316 µM): 93.5%; viability, T/C (second compound 3.16 µM, first compound 0.000316 µM): 97.8%; viability, T/C (second compound 3.16 µM, first compound 0.001 µM): 81.3%; viability, T/C (second compound 3.16 µM, first compound 0.00316 µM): 87.7%; viability, T/C (second compound 10 µM, first compound 0.000316 µM): 92.9%; viability, T/C (second compound 10 µM, first compound 0.001 µM): 92%; viability, T/C (second compound 10 µM, first compound 0.00316 µM): 79.6% |
